Laboratory results published in patent US11111214B2 (priority 2013, dated 2021).

Experiments:
[1] = not given; remark: listed apart in the source
in vitro [2] = conditions: rat, hepatocytes
in vitro [3] = conditions: human, hepatocytes
[4] = target: T1, recombinant human kappa (KOR) opioid receptor (Homo sapiens, UniProt P41145); test: biochemical; type: binding
T1 construct: expressed in transfected cells; host or cells: CHO-K1 cell membranes

[5] = target: T2, recombinant human mu (MOR) opioid receptor (Homo sapiens, UniProt P35372); test: biochemical; type: binding; conditions: for inhibition at 10 µM: read-out: Mu receptor % inhibition at single concentration, % inhibition @ 10 μM
T2 construct: expressed in transfected cells; host or cells: CHO-K1 cell membranes
T2 sequence (P35372 whole entry): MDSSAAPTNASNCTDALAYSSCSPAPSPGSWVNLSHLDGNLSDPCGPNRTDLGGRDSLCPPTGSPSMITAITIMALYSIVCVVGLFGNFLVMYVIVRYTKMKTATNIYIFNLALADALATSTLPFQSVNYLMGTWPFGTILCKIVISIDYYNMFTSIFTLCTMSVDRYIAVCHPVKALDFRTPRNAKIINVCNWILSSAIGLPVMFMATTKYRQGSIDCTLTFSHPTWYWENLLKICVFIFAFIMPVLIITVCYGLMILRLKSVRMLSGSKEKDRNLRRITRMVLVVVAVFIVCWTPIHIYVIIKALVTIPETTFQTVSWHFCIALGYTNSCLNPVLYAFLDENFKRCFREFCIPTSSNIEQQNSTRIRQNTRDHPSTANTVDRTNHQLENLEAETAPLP

[6] = target: T3, KOR (kappa opioid receptor) (Homo sapiens, UniProt P41145); test: cell-based
T3 construct: expressed in transfected cells; host or cells: CHO-K1 cells stably expressing KOR
T3 sequence (P41145 whole entry): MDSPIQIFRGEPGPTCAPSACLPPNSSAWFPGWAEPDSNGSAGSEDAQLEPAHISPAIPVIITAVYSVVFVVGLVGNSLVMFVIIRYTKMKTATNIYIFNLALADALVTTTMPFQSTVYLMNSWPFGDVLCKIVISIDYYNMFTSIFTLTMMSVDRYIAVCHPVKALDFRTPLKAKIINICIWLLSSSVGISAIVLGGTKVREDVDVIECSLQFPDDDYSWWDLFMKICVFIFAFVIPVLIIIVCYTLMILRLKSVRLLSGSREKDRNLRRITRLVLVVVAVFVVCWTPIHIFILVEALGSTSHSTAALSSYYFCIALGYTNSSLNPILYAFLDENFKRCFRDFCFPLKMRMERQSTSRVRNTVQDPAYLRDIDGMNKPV

T1 sequence (P41145 whole entry): as above

Structure (SMILES)	In vitro Hepatocyte Clearance, Rat % hep Blood flow	In vitro Hepatocyte Clearance, Human % hep Blood flow [1]	CLhep predicted (in vitro [2])	CLhep predicted (in vitro [3])	IC50 [4]	Ki [4]	IC50 [5]	inhibition at 10 µM [5]	EC50 [6]
CN(C(=O)C(c1ccccc1)c1ccccc1)[C@H](CN1CC[C@H](O)C1)c1ccccc1 [Asimadoline, asimadoline, reference compound]	85.0%	79.0%	51 mL/min/kg	18.2 mL/min/kg	–	–	–	–	–
CN(C(=O)Cc1ccc(Cl)c(Cl)c1)[C@H](CN1CCCC1)c1ccccc1 [ICI-199,441, reference compound]	73.0%	85.0%	44 mL/min/kg	19.7 mL/min/kg	–	–	–	–	–
COCCOCCOCCO[C@H]1CCN(C[C@H](c2ccccc2)N(C)C(=O)Cc2ccc(Cl)c(Cl)c2)C1.Cl [compound 4, 2-(3,4-Dichlorophenyl)-N-{(1S)-2-[(3S)-3-(2-(2-(2-methoxyethoxy)ethoxy]ethoxy)pyrrolidin-1-yl)-1-phenylethyl}-N-methylacetamide]	82%	84%	49 mL/min/kg	19.4 mL/min/kg	8.9 nM	2.1 nM	20400 nM	82%	0.42 nM
COCCOCCOCCNC(=O)O[C@H]1CCN(C[C@H](c2ccccc2)N(C)C(=O)Cc2ccc(Cl)c(Cl)c2)C1.Cl [compound 5, (3S)-1-[(2S)-2-{[(3,4-Dichlorophenyl)acetyl](methyl)amino}-2-phenylethyl]pyrrolidin-3-yl {2-[2-(2-methoxyethoxy)ethoxy]ethyl}carbamate]	82%	88%	49.1 mL/min/kg	20.4 mL/min/kg	1190 nM	275 nM	–	35.6%	75.7 nM
COCCOCCOCCOCCOCCNC(=O)O[C@H]1CCN(C[C@H](c2ccccc2)N(C)C(=O)Cc2ccc(Cl)c(Cl)c2)C1.Cl [compound 6, (3S)-1-[(2S)-2-{[(3,4-Dichlorophenyl)acetyl](methyl)amino}-2-phenylethyl]pyrrolidin-3-yl 2,5,8,11,14-pentaoxahexadecan-16-ylcarbamate]	81%	86%	48.8 mL/min/kg	20.1 mL/min/kg	1100 nM	255 nM	31200 nM	20.6%	56 nM
CCN(CCOC)C[C@H](c1ccccc1)N(C)C(=O)Cc1ccc(Cl)c(Cl)c1.Cl [compound 10, 2-(3,4-Dichlorophenyl)-N-{(1S)-2-[ethyl(2-methoxyethyl)amino]-1-phenylethyl}-N-methylacetamide]	83%	89%	49.7 mL/min/kg	20.6 mL/min/kg	82.7 nM	19.1 nM	–	82.8%	3.1 nM
CN(C(=O)Cc1ccc(Cl)c(Cl)c1)[C@H](CN1CCCC1)c1cccc(NS(=O)(=O)CCOCC(F)(F)F)c1.Cl [compound 19, 2-(3,4-dichlorophenyl)-N-methyl-N-{(1S)-2-(pyrrolidin-1-yl)-1-[3-({[2-(2,2,2-trifluoroethoxy)ethyl]sulfonyl}amino)phenyl]ethyl}acetamide]	45%	50%	26.8 mL/min/kg	11.7 mL/min/kg	0.69 nM	0.16 nM	–	99.1%	0.08 nM
COCCOCCOCCOCCOCCOc1ccc([C@@H](CN2CCCC2)N(C)C(=O)Cc2ccc(Cl)c(Cl)c2)cc1.Cl [compound 34, (S)—N-(1-(4-(2,5,8,11,14-pentaoxahexadecan-16-yloxy)phenyl)-2-(pyrrolidin-1-yl)ethyl)-2-(3,4-dichlorophenyl)-N-methylacetamide]	26%	71%	15.4 mL/min/kg	16.4 mL/min/kg	107 nM	24.6 nM	–	17.6%	13 nM
